Source: PubChem BioAssay AID296 (DTP/NCI, 2004)
Where “and” joins values, the source holds several entries; their conditions need not be identical. Equal entries are not always repeated. Results filed as inconclusive are left out.

System: MX-1 breast xenograft, nude mice, tumor weight T/C
Experiment: NCI In Vivo Anticancer Drug Screen. Data for tumor model Human Mammary Carcinoma MX-1 Xenograft (intrarenal inoculation) in NU/NU Swiss (nude) mice
Details: endpoint: mean tumor weight change, higher = larger tumour
Summary of the method: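 Compound dosed to mice with transplantable tumor; vehicle group as control. Endpoint survival or tumour size, reported as T/C.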

[1] = dose: 150.0 mg/kg/injection, schedule: Q04DX003 (sc), vehicle: saline with Tween-80
[2] = dose: 300.0 mg/kg/injection, schedule: Q04DX003 (sc), vehicle: saline with Tween-80
[3] = dose: 1200.0 mg/kg/injection, schedule: Q04DX003 (sc), vehicle: saline with Tween-80
[4] = dose: 600.0 mg/kg/injection, schedule: Q04DX003 (sc), vehicle: saline with Tween-80
[5] = dose: 150.0 mg/kg/injection, schedule: Q04DX003 (sc), vehicle: saline + alcohol
[6] = dose: 300.0 mg/kg/injection, schedule: Q04DX003 (sc), vehicle: saline + alcohol
[7] = dose: 2400.0 mg/kg/injection, schedule: Q04DX003 (sc), vehicle: saline with Tween-80
[8] = dose: 25.0 mg/kg/injection, schedule: Q04DX003 (sc), vehicle: saline
[9] = dose: 50.0 mg/kg/injection, schedule: Q04DX003 (sc), vehicle: saline
[10] = dose: 150.0 mg/kg/injection, schedule: Q04DX003 (sc), vehicle: Klucel (hydroxypropylcellulose) (HPC)
[11] = dose: 300.0 mg/kg/injection, schedule: Q04DX003 (sc), vehicle: Klucel (hydroxypropylcellulose) (HPC)
[12] = dose: 600.0 mg/kg/injection, schedule: Q04DX003 (sc), vehicle: Klucel (hydroxypropylcellulose) (HPC)
[13] = dose: 1200.0 mg/kg/injection, schedule: Q04DX003 (sc), vehicle: Klucel (hydroxypropylcellulose) (HPC)
[14] = dose: 2400.0 mg/kg/injection, schedule: Q04DX003 (sc), vehicle: Klucel (hydroxypropylcellulose) (HPC)
[15] = dose: 50.0 mg/kg/injection, schedule: Q01DX010 (sc), vehicle: saline with Tween-80

C[C@@]12C(=O)OC(=O)[C@]1(C)[C@H]1CC[C@@H]2O1
T/C (dose: 1.25 mg/kg/injection, schedule: Q04DX003 (sc), vehicle: Klucel (hydroxypropylcellulose) (HPC)): 29 % of control
T/C (dose: 2.5 mg/kg/injection, schedule: Q04DX003 (sc), vehicle: Klucel (hydroxypropylcellulose) (HPC)): 74 % of control

CCCCNCCCNCCCNC(=O)c1csc(-c2csc(CCNC(=O)C(NC(=O)C(C)C(O)C(C)NC(=O)C(NC(=O)c3nc(C(CC(N)=O)NCC(N)C(N)=O)nc(N)c3C)C(OC3OC(CO)C(O)C(O)C3OC3OC(CO)C(O)C(OC(N)=O)C3O)c3cnc[nH]3)C(C)O)n2)n1 (stereo not given)
T/C (dose: 8.0 mg/kg/injection, schedule: Q01DX010 (sc), vehicle: saline): 104 % of control
T/C (dose: 16.0 mg/kg/injection, schedule: Q01DX010 (sc), vehicle: saline): 73 % of control
T/C (dose: 32.0 mg/kg/injection, schedule: Q01DX010 (sc), vehicle: saline): 39 % of control

Oc1cc2ccccc2c(-c2c(O)c(O)cc3ccccc23)c1O
T/C [1]: 162 % of control
T/C [2]: 151 % of control
T/C [3]: 96 % of control

c1ccc([Te][Te]c2ccccc2)cc1
T/C (dose: 75.0 mg/kg/injection, schedule: Q04DX003 (ip), vehicle: saline with Tween-80): 117 % of control
T/C (dose: 150.0 mg/kg/injection, schedule: Q04DX003 (ip), vehicle: saline with Tween-80): 80 % of control
T/C (dose: 300.0 mg/kg/injection, schedule: Q04DX003 (ip), vehicle: saline with Tween-80): 91 % of control

CCOC(=O)c1cn(C)c2c1C(O)=C(C(=O)OC)CC(=O)N2
T/C [1]: 95 % of control
T/C [2]: 80 % of control
T/C [4]: 85 % of control
T/C [3]: 90 % of control

CC(Cc1ccc(O)c(O)c1)C(C)Cc1ccc(O)c(O)c1 (stereo not given)
T/C [5]: 109 % of control
T/C [6]: 92 % of control
T/C (dose: 1200.0 mg/kg/injection, schedule: Q04DX003 (sc), vehicle: saline + alcohol): 92 % of control

CC1(C)OCC(CO)(Nc2nc(N3CC3)nc(N3CC3)n2)CO1
T/C (dose: 2.5 mg/kg/injection, schedule: Q01DX010 (sc), vehicle: saline): -75 % of control

C=C(OP(=O)(OC)OC)Sc1ccccc1C
T/C (dose: 0.2 mg/kg/injection, schedule: Q04DX003 (sc), vehicle: Klucel (hydroxypropylcellulose) (HPC)): 65 % of control
T/C (dose: 0.4 mg/kg/injection, schedule: Q04DX003 (sc), vehicle: Klucel (hydroxypropylcellulose) (HPC)): 67 % of control

[I][Hg][CH2]C1COC([CH2][Hg][I])CO1 (stereo not given)
T/C [2]: 86 % of control
T/C [4]: 77 % of control
T/C [3]: 115 % of control
T/C [7]: 82 % of control

CC1(c2ccc(Cl)cc2)OC(=O)C(=Cc2ccc([N+](=O)[O-])s2)C(=O)O1 (stereo not given)
T/C [2]: 122 % of control
T/C [4]: 44 % of control
T/C [3]: 26 % of control

[Cl][Pt+2][Cl].[NH-]C1CCC1.[NH2-]
T/C (dose: 6.25 mg/kg/injection, schedule: Q04DX003 (sc), vehicle: suspension in saline): -100 % of control
T/C (dose: 25.0 mg/kg/injection, schedule: Q04DX003 (sc), vehicle: suspension in saline): -84 % of control and -100 % of control

CCN=C=NCCCN(C)C
T/C [8]: 112 % of control
T/C [9]: 76 % of control

CCCCCCCCCCCCCCCCCCCCCC(=O)Nc1ccn(C2OC(CO)C(O)C2O)c(=O)n1 (stereo not given)
T/C [2]: 123 % of control
T/C [4]: 87 % of control
T/C [3]: 68 % of control
T/C [7]: 84 % of control

CCCCCNc1ncnc2c(C)[nH]nc12
T/C (dose: 75.0 mg/kg/injection, schedule: Q04DX003 (ip), vehicle: Klucel (hydroxypropylcellulose) (HPC)): 80 % of control
T/C (dose: 150.0 mg/kg/injection, schedule: Q04DX003 (ip), vehicle: Klucel (hydroxypropylcellulose) (HPC)): 112 % of control

O=c1oc2c(O)c(O)cc3c(=O)oc4c(O)c(O)cc1c4c23
T/C [10]: 115 % of control
T/C [11]: 109 % of control
T/C [12]: 67 % of control
T/C [13]: 101 % of control

CCOC(=O)c1c[nH]c2oc(/C=N/N3CC(CN4CCOCC4)OC3=O)cc2c1=O (stereo not given)
T/C (dose: 50.0 mg/kg/injection, schedule: Q01DX010 (sc), vehicle: saline): 116 % of control
T/C (dose: 100.0 mg/kg/injection, schedule: Q01DX010 (sc), vehicle: saline): 77 % of control
T/C (dose: 200.0 mg/kg/injection, schedule: Q01DX010 (sc), vehicle: saline): 98 % of control
T/C (dose: 400.0 mg/kg/injection, schedule: Q01DX010 (sc), vehicle: saline): 72 % of control

C[C@]12C=CC(=O)C=C1CC[C@@H]1[C@@H]2C(=O)C[C@@]2(C)[C@H]1CC[C@]2(O)C(=O)CO
T/C [11]: 40 % of control
T/C [12]: 73 % of control
T/C [13]: 44 % of control
T/C [14]: 29 % of control

Cc1cc(N2C(=O)CCSC2=S)ccc1Cl
T/C [10]: 169 % of control
T/C [11]: 90 % of control
T/C [12]: 63 % of control
T/C [13]: 96 % of control

N/C(=N\OC(=O)Nc1ccc(CSc2ccc(Cl)cc2)o1)c1ccccn1
T/C (dose: 9.38 mg/kg/injection, schedule: Q04DX003 (sc), vehicle: saline): 62 % of control
T/C (dose: 18.75 mg/kg/injection, schedule: Q04DX003 (sc), vehicle: saline): 66 % of control
T/C (dose: 37.5 mg/kg/injection, schedule: Q04DX003 (sc), vehicle: saline): 40 % of control
T/C [10]: 102 % of control
T/C [11]: 97 % of control

CCCCCc1cc(O)c2c(c1)OC(C)(C)[C@@H]1CCC(C)=C[C@@H]21
T/C (dose: 150.0 mg/kg/injection, schedule: Q04DX003 (sc), vehicle: other): 82 % of control
T/C (dose: 300.0 mg/kg/injection, schedule: Q04DX003 (sc), vehicle: other): 81 % of control
T/C (dose: 1200.0 mg/kg/injection, schedule: Q04DX003 (sc), vehicle: other): 83 % of control

CSc1ncnc2c1ncn2C1OC(CO)C(O)C1O (stereo not given)
T/C (dose: 75.0 mg/kg/injection, schedule: Q04DX003 (sc), vehicle: saline + alcohol): 3 % of control and 14 % of control
T/C [5]: -81 % of control and -100 % of control
T/C [6]: -90 % of control

Cc1c(CNc2ccc(C(=O)NC(CC(=O)O)C(=O)O)cc2)ccc2nc(N)nc(N)c12 (stereo not given)
T/C (dose: 6.0 mg/kg/injection, schedule: Q04DX003 (sc), vehicle: saline with Tween-80): 29 % of control
T/C (dose: 48.0 mg/kg/injection, schedule: Q04DX003 (sc), vehicle: saline with Tween-80): 13 % of control and 33 % of control
T/C (dose: 72.0 mg/kg/injection, schedule: Q04DX003 (sc), vehicle: saline with Tween-80): 18 % of control and 28 % of control

CCN(CC)CCCC(C)Nc1c2ccc(Cl)cc2nc2ccc(OC)cc12 (stereo not given)
T/C [15]: 158 % of control
T/C (dose: 100.0 mg/kg/injection, schedule: Q01DX010 (sc), vehicle: saline with Tween-80): 110 % of control

Oc1ccc(O)cc1
T/C [8]: 81 % of control
T/C [9]: 71 % of control
T/C (dose: 100.0 mg/kg/injection, schedule: Q04DX003 (sc), vehicle: saline): 75 % of control

CCOC(=O)Nc1cc2c(c(N)n1)N=C(CN(C)c1ccccc1)CN2
T/C (dose: 25.0 mg/kg/injection, schedule: Q01DX010 (sc), vehicle: Klucel (hydroxypropylcellulose) (HPC)): 82 % of control
T/C (dose: 50.0 mg/kg/injection, schedule: Q01DX010 (sc), vehicle: Klucel (hydroxypropylcellulose) (HPC)): 70 % of control

Nc1n[n+](-c2ccccc2)no1
T/C (dose: 18.75 mg/kg/injection, schedule: Q04DX003 (sc), vehicle: water): 70 % of control
T/C (dose: 37.5 mg/kg/injection, schedule: Q04DX003 (sc), vehicle: water): 94 % of control
T/C (dose: 75.0 mg/kg/injection, schedule: Q04DX003 (sc), vehicle: water): 59 % of control

COC(=O)Nc1ccc(Cc2ccc(NC(=O)OC)cc2)cc1
T/C [2]: 87 % of control
T/C [4]: 119 % of control
T/C [3]: 65 % of control
T/C [7]: 48 % of control

C[Si](C)(C)OSc1ccccc1[N+](=O)[O-]
T/C [11]: 92 % of control
T/C [12]: 95 % of control
T/C [13]: 80 % of control
T/C [14]: 107 % of control

CCC[CH2][Sn]1([CH2]CCC)[O]C2C(CO)OC(n3ccc(N)nc3=O)C2[O]1 (stereo not given)
T/C (dose: 12.0 mg/kg/injection, schedule: Q04DX003 (sc), vehicle: Klucel (hydroxypropylcellulose) (HPC)): 55 % of control
T/C (dose: 24.0 mg/kg/injection, schedule: Q04DX003 (sc), vehicle: Klucel (hydroxypropylcellulose) (HPC)): 59 % of control

COc1cc(C)c(C2NC(=O)c3ccccc3N2)cc1C (stereo not given)
T/C [11]: 53 % of control
T/C [12]: 115 % of control
T/C [13]: 93 % of control
T/C [14]: 90 % of control

CCCC(=O)Oc1ccc(/C=N/NC(N)=S)nc1
T/C [15]: 101 % of control
T/C (dose: 200.0 mg/kg/injection, schedule: Q01DX010 (sc), vehicle: saline with Tween-80): 113 % of control

N#Cc1cn(C2OC(CO)C(O)C2O)c2ncnc(N)c12 (stereo not given)
T/C (dose: 0.5 mg/kg/injection, schedule: Q01DX010 (sc), vehicle: saline): 172 % of control
